Reference: PMC11320730, “5-Methoxy-2-aminoindane Reverses Diet-Induced Obesity and Improves Metabolic Parameters in Mice: A Potential New Class of Antiobesity Therapeutics” (ACS Pharmacology & Translational Science, 2024)

Assays:
DIO C57BL/6 mice = assay: Wheel running and locomotor activity in DIO mice; type: in vivo; conditions: 40 mg/kg/day
Experimental: Male C57BL/6 mice were used to establish DIO by feeding them a high-fat diet (HFD; 60% cal/L fat, 20% cal/L protein, and 20% cal/L carbohydrates; Research Diet, D12492) for 18 weeks. After this period, mice were treated with either vehicle (sterile water, N = 8) or MEAI (N = 11) daily for 28 days by gavage at a dose of 40 mg/kg/day. Age-matched control mice (N = 10) on a standard diet (STD; 14% kcal fat, 24% kcal protein, 62% kcal carbohydrates; NIH-31 rodent diet) received vehicle daily. The body weight of all mice was monitored daily, and total body fat and lean mass were determined by EchoMRI-100H (Echo Medical Systems LLC, Houston, Texas, USA). On day 29, at the end of the experimental period, mice were euthanized by a cervical dislocation under anesthesia. The kidneys, brain, liver, and fat pads were removed and weighed, and samples were either snap-frozen or fixed in buffered 4% formalin. Trunk blood was collected to determine the biochemical parameters.
The activity energy expenditure was calculated based on eq 7: [drawing 7] 7
The assessment of wheel running and locomotor activity was performed by using the Promethion High-Definition Behavioral Phenotyping System (Sable Instruments, Inc., Las Vegas, Nevada, USA). Wheel revolutions were measured with a monitor that recorded voluntary wheel running activity, and locomotor activity was quantified using disruptions of infrared XYZ beam arrays with a beam spacing of 0.25 cm. Pedestrian locomotion represented the sum of all directed ambulatory locomotion within the beam break system, using a speed cutoff of 1 cm/s. Total distance represented the sum of all distances traveled within the beam break system, not including any distance run on the wheel in meters (m); this included fine movements (such as grooming and scratching).

C57Bl/6 mice = assay: Acute single oral dose of MEAI: drug tolerability; type: in vivo; conditions: lean male mice
Experimental: Male 6-week-old C57Bl/6 mice (Harlan, Israel) were maintained in standard conditions under a 12 h light/dark cycle and fed ad libitum. A total of 32 animals were divided into four experimental groups (N = 8 mice per group) receiving single doses of 40, 60, or 100 mg/kg of MEAI or vehicle (sterile water), which was administered via oral gavage 2 h prior to the dark phase. The animals were monitored for 48 h postdose for drug tolerability, food and water intakes, and activity and metabolic parameters. At the end of the experiment, the animals were euthanized, and tissues (brain, liver, fat, and kidney) and blood were collected and stored in a frozen state for future analyses.

5-HT2B receptor = test system: 5-HT2B receptor; parameters: method as in PMID 29458138; conditions: cited from earlier work
[1] = vs HFD-vehicle, did not surpass STD-vehicle

## COc1ccc2c(c1)CC(N)C2.Cl (centres unmarked) [MEAI, 2,3-Dihydro-5-methoxy-1H-inden-2-amine hydrochloride]
DIO C57BL/6 mice
  voluntary wheel running: increased capability to run on the voluntary wheel
  wheel running speed: comparable to the STD-vehicle-treated group
DIO C57BL/6 mice; Results section
  interaction times with food and water dispensers (time budget): extended
DIO C57BL/6 mice; pronounced during nocturnal phase
  voluntary ambulatory behaviors (pedestrian activity and grooming): significantly boosted
DIO C57BL/6 mice; trend toward an increase
  energy expenditure associated with activity levels: did not reach statistical significance
DIO C57BL/6 mice; [1]
  pedestrian activity: increased
  pedestrian speed: increased
  total distance traveled: increased
C57Bl/6 mice; single oral dose 100 mg/kg, within a few hours
  deaths after dosing: two subjects in the 100 mg/kg group died
C57Bl/6 mice; single oral dose, 40 and 60 mg/kg
  drug tolerability: well-tolerated
5-HT2B receptor
  binding inhibition: modest binding inhibition
